Measurements published in patent US12590062B2, “PD-1/PD-L1 inhibitors” (Gilead Sciences, Inc., priority 2017, dated 2026).

Tests used:
[1] = biological target: T1, interaction between the recombinant extracellular domain (ECD) of PD-1 and native cell-bound PD-L1 (Homo sapiens, UniProt Q9NZQ7); test: CHO/PD-L1 cell capture assay; type: cell-based; details: CHO cells overexpressing PD-L1, pre-incubated 1 hr with compound, captured on biotinylated Fc-PD-1 coated plates, 75 min at room temperature
T1 construct: expressed in transfected cells
T1 sequence (Q9NZQ7 19-290): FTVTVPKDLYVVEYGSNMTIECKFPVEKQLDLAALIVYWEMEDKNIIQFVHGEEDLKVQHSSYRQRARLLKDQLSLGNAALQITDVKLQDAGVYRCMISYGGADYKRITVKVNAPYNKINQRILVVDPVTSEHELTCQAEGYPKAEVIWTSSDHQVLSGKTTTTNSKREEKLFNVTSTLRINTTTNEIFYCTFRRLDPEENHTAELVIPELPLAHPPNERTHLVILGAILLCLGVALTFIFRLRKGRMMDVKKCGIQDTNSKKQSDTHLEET
Summary of the method: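 CHO cells stably overexpressing PD-L1 were pre-incubated 1 hr with compound, then captured 75 min at room temperature on biotinylated Fc-PD-1 ECD bound to streptavidin plates. After glutaraldehyde/Draq5 fixation-staining, captured cells were counted by high-content microscopy; EC50 from four-parameter dose-response fits.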

[2] = biological target: T2, PD-L1 (Homo sapiens, UniProt Q9NZQ7); test: PD-L1/PD-L1 dimerization biochemical protein-protein interaction assay (ALPHA); type: binding; details: compound-induced PD-L1 dimerization, head prints '1 nM' (0.5 nM His-tagged PD-L1 and 0.5 nM FLAG-tagged PD-L1), read-out: AC50 PDL1 Dimer Alpha 1 nM
T2 construct: determine if they can specifically dimerize the extracellular domains of PD-L1
T2 sequence (Q9NZQ7 19-238 limits assumed): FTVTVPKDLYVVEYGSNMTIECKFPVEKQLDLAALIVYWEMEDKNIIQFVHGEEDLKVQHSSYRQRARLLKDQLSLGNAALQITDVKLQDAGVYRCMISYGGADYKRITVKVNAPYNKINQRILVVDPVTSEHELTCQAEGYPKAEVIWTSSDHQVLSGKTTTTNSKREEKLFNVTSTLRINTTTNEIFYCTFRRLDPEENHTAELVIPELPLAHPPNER
T2 sequence (Q9NZQ7 19-238 limits assumed): as above
Summary of the method: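 ALPHA proximity assay of compound-induced dimerization of 0.5 nM His-tagged and 0.5 nM FLAG-tagged PD-L1 extracellular domains in Hepes pH 7.4 buffer, 2 h at 25 °C. Anti-His acceptor then anti-FLAG donor beads, 60 min each; AC50 from four-parameter fit.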

[3] = biological target: T3, PD-1/PD-L1 interaction (Homo sapiens, UniProt Q9NZQ7); test: PD-1/PD-L1 NFAT reporter co-culture assay; type: cell-based; details: Jurkat PD-1 NFAT-luciferase cells co-cultured with aAPC-PD-L1 CHO cells, 6 hrs at 37° C.; read-out: EC50 NFAT Luciferase
T3 construct: expressed in transfected cells; host or cells: CHO cells (aAPC-PD-L1) co-cultured with Jurkat cells overexpressing PD-1 and an NFAT-luciferase reporter
T3 sequence (Q9NZQ7 19-290): as the sequence (Q9NZQ7 19-290) above
Summary of the method: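 CHO aAPC-PD-L1 seeded overnight; PD-1/NFAT-luc Jurkat + cpd in RPMI 1640, 2% FBS added at once; 6 h, 37 °C; ONE-Glo luminescence; EC50, 4-parameter fit.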

[4] = biological target: PD-1/PD-L1 (Homo sapiens, UniProt Q9NZQ7); test: PD-1/PD-L1 biochemical protein-protein interaction assay (ALPHA); type: binding; details: 0.3 nM His tagged PD-L1, 2.5 nM biotinylated Fc-PD-1, 60 minutes at 25° C., read-out: IC50 PD-L1-PD-1 Alpha IC50-mono PD-L1-fcP-D1
Chain of PD-1/PD-L1 (Q9NZQ7 19-238 limits assumed): as the sequence (Q9NZQ7 19-238 limits assumed) above
Summary of the method: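 Compounds are tested for blocking the PD-1/PD-L1 extracellular-domain interaction using an ALPHA bead assay, in which inhibition lowers the luminescent signal. Reactions run 60 min at 25° C with 0.3 nM His-PD-L1 and 2.5 nM biotinylated Fc-PD-1. IC50 values come from four-parameter fits.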

Row | EC50 [1] [nM] | AC50 [2] [nM] | EC50 [3] [nM] | IC50 [4] [nM] | Compound
1 | 52.1 | 369 | ≥ 50000 |  | COc1nc(OCc2cccc(-c3cccc(COc4nc(OC)c(C5=NCCN5)cc4Cl)c3C)c2C)c(Cl)cc1C1=NCCN1 [Example 30, 6,6′-(((2,2′-dimethyl-[1,1′-biphenyl]-3,3′-diyl)bis(methylene))bis(oxy))bis(5-chloro-3-(4,5-dihydro-1H-imidazol-2-yl)-2-methoxypyridine)]
2 | 65.2 | ≥ 10000 | 79 |  | COc1nc(OCc2cccc(-c3cccc(COc4nc(OC)c(CN[C@](C)(CO)C(=O)O)cc4Cl)c3C)c2C)c(Cl)cc1CN[C@](C)(CO)C(=O)O [Example 43, (2R,2′R)-2,2′-((((((2,2′-dimethyl-[1,1′-biphenyl]-3,3′-diyl)bis(methylene))bis(oxy))bis(5-chloro-2-methoxypyridine-6,3-diyl))bis(methylene))bis(azanediyl))bis(3-hydroxy-2-methylpropanoic acid)]
3 | 176 | ≥ 10000 | 138 |  | COc1nc(OCc2cccc(-c3cccc(COc4nc(OC)c(CN[C@@H](C)CC(=O)O)cc4Cl)c3C)c2C)c(Cl)cc1CN[C@@H](C)CC(=O)O [Example 74, (3S,3′S)-3,3′-((((((2,2′-dimethyl-[1,1′-biphenyl]-3,3′-diyl)bis(methylene))bis(oxy))bis(5-chloro-2-methoxypyridine-6,3-diyl))bis(methylene))bis(azanediyl))dibutyric acid]
4 | 219 | ≥ 10000 | 113 |  | COc1nc(OCc2cccc(-c3cccc(COc4nc(OC)c(CN[C@H](C)C(=O)O)cc4Cl)c3C)c2C)c(Cl)cc1CN[C@H](C)C(=O)O [Example 90, (2R,2′R)-2,2′-((((((2,2′-dimethyl-[1,1′-biphenyl]-3,3′-diyl)bis(methylene))bis(oxy))bis(5-chloro-2-methoxypyridine-6,3-diyl))bis(methylene))bis(azanediyl))dipropionic acid]
5 | 196 | ≥ 10000 | 523 |  | COc1nc(OCc2cccc(-c3cccc(COc4nc(OC)c(CNC5(C(=O)O)CC5)cc4Cl)c3C)c2C)c(Cl)cc1CNC1(C(=O)O)CC1 [Example 91, 1,1′-((((((2,2′-dimethyl-[1,1′-biphenyl]-3,3′-diyl)bis(methylene))bis(oxy))bis(5-chloro-2-methoxypyridine-6,3-diyl))bis(methylene))bis(azanediyl))bis(cyclopropane-1-carboxylicacid)]
6 | 25.9 | 170 | 63 |  | Cc1c(COc2cc(OCc3cncc(C#N)c3)c(CNC[C@@H](O)CC(=O)O)cc2Cl)cccc1-c1cccc(-c2ccc(OCCNC[C@@H](O)CC(=O)O)c([N+](=O)[O-])c2)c1C [Example 92, (S)-4-((4-((4″-(2-(((S)-3-carboxy-2-hydroxypropyl)amino)ethoxy)-2,2′-dimethyl-3″-nitro-[1,1′:3′,1″-terphenyl]-3-yl)methoxy)-5-chloro-2-((5-cyanopyridin-3-yl)methoxy)benzyl)amino)-3-hydroxybutanoic acid]
7 | 44.4 | 145 | 127 |  | Cc1c(COc2cc(OCc3cncc(C#N)c3)c(CN[C@@H](C)C(=O)O)cc2Cl)cccc1-c1cccc(-c2ccc(OCCN[C@@H](C)C(=O)O)c([N+](=O)[O-])c2)c1C [Example 93, (4-((4″-(2-(((S)-1-carboxyethyl)amino)ethoxy)-2,2′-dimethyl-3″-nitro-[1,1′:3′,1″-terphenyl]-3-yl)methoxy)-5-chloro-2-((5-cyanopyridin-3-yl)methoxy)benzyl)-L-alanine]
8 | 7.5 | 113 | 662 |  | COc1nc(OCc2cccc(-c3cccc(-c4ccc(OCCNC[C@@H](O)CC(=O)O)cc4)c3C)c2C)c(Cl)cc1CNC[C@@H](O)CC(=O)O [Example 109, (S)-4-(((6-((4″-(2-(((S)-3-carboxy-2-hydroxypropyl)amino)ethoxy)-2,2′-dimethyl-[1,1′:3′,1″-terphenyl]-3-yl)methoxy)-5-chloro-2-methoxypyridin-3-yl)methyl)amino)-3-hydroxybutanoic acid]
9 | 6.5 | 194 | 354 |  | COc1nc(OCc2cccc(-c3cccc(-c4ccc(OCCNC[C@H](O)CC(=O)O)cc4)c3C)c2C)c(Cl)cc1CNC[C@H](O)CC(=O)O [Example 110, (R)-4-(((6-((4″-(2-(((R)-3-carboxy-2-hydroxypropyl)amino)ethoxy)-2,2′-dimethyl-[1,1′:3′,1″-terphenyl]-3-yl)methoxy)-5-chloro-2-methoxypyridin-3-yl)methyl)amino)-3-hydroxybutanoic acid]
10 | 34.4 | 184 | 286 |  | Cc1c(COc2cc(OCc3cncc(C#N)c3)c(CNC[C@@H](O)CC(=O)O)cc2Cl)cccc1-c1cccc(-c2ccc(OCCNC[C@@H](O)CC(=O)O)cn2)c1C [Example 112, (S)-4-((4-((3′-(5-(2-(((S)-3-carboxy-2-hydroxypropyl)amino)ethoxy)pyridin-2-yl)-2,2′-dimethyl-[1,1′-biphenyl]-3-yl)methoxy)-5-chloro-2-((5-cyanopyridin-3-yl)methoxy)benzyl)amino)-3-hydroxybutanoic acid]
11 | 158 | 361 | 779 |  | COc1nc(OCc2cccc(-c3cccc(COc4nc(OC)c(CN(CCCC(N)=O)CC(=O)O)cc4Br)c3C)c2C)c(Br)cc1CN(CCCC(N)=O)CC(=O)O [Example 117, 2,2′-((((((2,2′-dimethyl-[1,1′-biphenyl]-3,3′-diyl)bis(methylene))bis(oxy))bis(5-bromo-2-methoxypyridine-6,3-diyl))bis(methylene))bis((4-amino-4-oxobutyl)azanediyl))diacetic acid]
12 | 137 | 198 | 75 |  | Cc1c(COc2nc(OCc3cc(C#N)cc(C#N)c3)c(CN[C@@](C)(CO)C(=O)O)cc2Cl)cccc1-c1cccc(COc2nc(OCc3cc(C#N)cc(C#N)c3)c(CN[C@@](C)(CO)C(=O)O)cc2Cl)c1C [Example 123, (2S,2′S)-2,2′-((((((2,2′-dimethyl-[1,1′-biphenyl]-3,3′-diyl)bis(methylene))bis(oxy))bis(5-chloro-2-((3,5-dicyanobenzyl)oxy)pyridine-6,3-diyl))bis(methylene))bis(azanediyl))bis(3-hydroxy-2-methylpropanoic acid)]
13 | 308 |  | 3440 | 0.6 | COc1cc(OCc2cccc(-c3cccc(COc4cc(OC)c(CNC[C@@H](O)CC(=O)O)c(OCc5cncc(C#N)c5)c4)c3C)c2C)cc(OCc2cncc(C#N)c2)c1CNC[C@@H](O)CC(=O)O [Example 245, (3S,3′S)-4,4′-((((((2,2′-dimethyl-[1,1′-biphenyl]-3,3′-diyl)bis(methylene))bis(oxy))bis(2-((5-cyanopyridin-3-yl)methoxy)-6-methoxy-4,1-phenylene))bis(methylene))bis(azanediyl))bis(3-hydroxybutanoic acid)]
14 | 200 |  | 540 | 0.2 | Cc1c(COc2ccc(CNC[C@@H](O)CC(=O)O)c(OCc3cncc(C#N)c3)c2)cccc1-c1cccc(COc2ccc(CNC[C@@H](O)CC(=O)O)c(OCc3cncc(C#N)c3)c2)c1C [Example 248, (3S,3′S)-4,4′-((((((2,2′-dimethyl-[1,1′-biphenyl]-3,3′-diyl)bis(methylene))bis(oxy))bis(2-((5-cyanopyridin-3-yl)methoxy)-4,1-phenylene))bis(methylene))bis(azanediyl))bis(3-hydroxybutanoic acid)]
15 | 208 |  | 592 | 0.3 | Cc1c(COc2cc(OCC3CCOC3)c(CNC[C@@H](O)CC(=O)O)cc2Cl)cccc1-c1cccc(COc2cc(OCC3CCOC3)c(CNC[C@@H](O)CC(=O)O)cc2Cl)c1C (stereo partly drawn) [Example 280, (3S,3′S)-4,4′-((((((2,2′-dimethyl-[1,1′-biphenyl]-3,3′-diyl)bis(methylene))bis(oxy))bis(5-chloro-2-((tetrahydrofuran-3-yl)methoxy)-4,1-phenylene))bis(methylene))bis(azanediyl))bis(3-hydroxybutanoic acid)]
